The text below walks through data of patent publication US11331351B2, “Bacillus strains improving health and performance of production animals” (priority 2015, dated 2022).

Converted amounts (≈) assume the structure as drawn. Where two headings read alike, the source gives them in different places. Bridge positions count the residues as written; N and C are the ends. Square brackets hold non-standard residues; d marks the D form. Peptide text beside a SMILES is read from it. * marks the point of attachment. Ileψ(thiazoline)Cys = CC[C@H](C)[C@H](N)C1=N[C@H](C(=O)*)CS1; dOrn = NCCC[C@@H](N)C(=O)O

Experiment [1] relates to B. subtilis DSM 29870. The class given is cell-based, Bacillus subtilis. To be noted: for MIC: Bacillus subtilis.
Experiment [2] relates to B. subtilis DSM 29871. The format is cell-based, Bacillus subtilis. The conditions noted are these: for MIC: Bacillus subtilis.
The subject of experiment [3] is B. amyloliquefaciens DSM 29869. The class given is cell-based, Bacillus amyloliquefaciens. To be noted: for MIC: Bacillus amyloliquefaciens.
Experiment [4] has as its system B. subtilis DSM 29870. The conditions noted are these: EFSA Journal 2012; 10(6): 2740; cited from earlier work.
Experiment [5] concerns B. subtilis DSM 29871. To be noted: EFSA Journal 2012; 10(6): 2740; cited from earlier work.
Experiment [6] relates to B. amyloliquefaciens DSM 29869. The conditions noted are these: EFSA Journal 2012; 10(6): 2740; cited from earlier work.
The test system of experiment [7] is Clostridium perfringens. The class given is in vivo, broiler chickens Cobb×Cobb. To be noted: bacitracin 50 ppm; for Lesion score (d 21): 0 to 3 score; for BWG (g/bird) (d 1-d 28) / Dead birds with necrotic enteritis lesions (%) (d 1-d 28) / FCR (d 1-d 28) / Total mortality (%) (d 1-d 28): infected.
Setting [8] is: DSM29870, biological replicate MIC 1, 37° C., 20-24 h, read-out: MIC 1.
The mark [9] stands for this setting: DSM29870, biological replicate MIC 2, 37° C., 20-24 h, read-out: MIC 2.
[10] abbreviates: DSM29870, biological replicate MIC 3, 37° C., 20-24 h, read-out: MIC 3.
Where [11] appears, read: DSM29871, biological replicate MIC 1, 37° C., 20-24 h, read-out: MIC 1.
Setting [12] is: DSM29871, biological replicate MIC 2, 37° C., 20-24 h, read-out: MIC 2.
The mark [13] stands for this setting: DSM29871, biological replicate MIC 3, 37° C., 20-24 h, read-out: MIC 3.
The mark [14] stands for this setting: DSM29869, biological replicate MIC 1, 37° C., 20-24 h, read-out: MIC 1.
The mark [15] stands for this setting: DSM29869, biological replicate MIC 2, 37° C., 20-24 h, read-out: MIC 2.
Where [16] appears, read: DSM29869, biological replicate MIC 3, 37° C., 20-24 h, read-out: MIC 3.
[17] abbreviates: biological replicate MIC 1, 37° C., 20-24 h.
[18] abbreviates: biological replicate MIC 2, 37° C., 20-24 h.
Setting [19] is: biological replicate MIC 3, 37° C., 20-24 h.
[20] abbreviates: Trial 1, DSM 29870 1.10^9 CFU/kg of feed.
Setting [21] is: Trial 2, DSM 29870 5.10^8 CFU/kg of feed.
The mark [22] stands for this setting: Trial 3, DSM 29870 5.10^8 CFU/kg of feed.

Consider `CCC[C@@H]1C[C@@H](C(=O)N[C@@H]([C@H]2O[C@H](SC)[C@H](O)[C@@H](O)[C@H]2O)[C@H](C)Cl)N(C)C1` [Clindamycin], for which the minimum inhibitory concentration (MIC) in experiment [1] (setting [8]) was determined as 0.25 µg/mL (≈ 0.588 µM); in experiment [1] (setting [9]), 0.25 µg/mL (≈ 0.588 µM); in experiment [1] (setting [10]), 0.25 µg/mL (≈ 0.588 µM); in experiment [2] (setting [11]), 0.5 µg/mL (≈ 1.18 µM); in experiment [2] (setting [12]) it was 0.25 µg/mL (≈ 0.588 µM); in experiment [2] (setting [13]) it was 0.5 µg/mL (≈ 1.18 µM). For the same compound, the minimum inhibitory concentration (MIC) in experiment [3] (setting [14]) stood at 1 µg/mL (≈ 2.35 µM); in experiment [3] (setting [15]), 0.5 µg/mL (≈ 1.18 µM); in experiment [3] (setting [16]) it was 1 µg/mL (≈ 2.35 µM).
`CN[C@H](CC(C)C)C(=O)N[C@H]1C(=O)N[C@@H](CC(N)=O)C(=O)N[C@H]2C(=O)N[C@H]3C(=O)N[C@H](C(=O)N[C@H](C(=O)O)c4cc(O)cc(O)c4-c4cc3ccc4O)[C@H](O)c3ccc(c(Cl)c3)Oc3cc2cc(c3O[C@@H]2O[C@H](CO)[C@@H](O)[C@H](O)[C@H]2O[C@H]2C[C@](C)(N)[C@H](O)[C@H](C)O2)Oc2ccc(cc2Cl)[C@H]1O` [Vancomycin]: the EFSA breakpoints in experiment [4], in experiment [5] and in experiment [6] was 4 µg/mL each time. Moreover, the MIC in experiment [1] (DSM29870, read-out: MIC 2) was found to be 0.25 µg/mL (≈ 0.173 µM); in experiment [1] (DSM29870, read-out: MIC 3), 0.25 µg/mL (≈ 0.173 µM); in experiment [1] (setting [8]), 0.25 µg/mL (≈ 0.173 µM); in experiment [2] (DSM29871, read-out: MIC 2), 0.25 µg/mL (≈ 0.173 µM); in experiment [2] (DSM29871, read-out: MIC 3), 0.25 µg/mL (≈ 0.173 µM); in experiment [2] (setting [11]), 0.25 µg/mL (≈ 0.173 µM). In addition, the minimum inhibitory concentration (MIC) turned out to be 0.25 µg/mL (≈ 0.173 µM) in experiment [3] (DSM29869, read-out: MIC 2); 0.25 µg/mL (≈ 0.173 µM) in experiment [3] (setting [14]); 0.25 µg/mL (≈ 0.173 µM) in experiment [3] (setting [16]).
As for `CC[C@H]1OC(=O)[C@H](C)[C@@H](O[C@H]2C[C@@](C)(OC)[C@@H](O)[C@H](C)O2)[C@H](C)[C@@H](O[C@@H]2O[C@H](C)C[C@H](N(C)C)[C@H]2O)[C@](C)(O)C[C@@H](C)C(=O)[C@H](C)[C@@H](O)[C@]1(C)O` [Erythromycin], the EFSA breakpoints in experiment [4], in experiment [5] and in experiment [6] was 4 µg/mL each time. Moreover, the MIC in experiment [1] (setting [8]), in experiment [1] (setting [9]), in experiment [1] (setting [10]), in experiment [2] (setting [11]), in experiment [2] (setting [12]) and in experiment [2] (setting [13]) was 0.125 µg/mL (≈ 0.17 µM) each time. For the same compound, the results for the minimal inhibitory concentration (MIC) in experiment [3] (setting [14]), in experiment [3] (setting [15]) and in experiment [3] (setting [16]) were 0.5 µg/mL (≈ 0.681 µM), 0.06 µg/mL (≈ 0.0818 µM) and 0.06 µg/mL (≈ 0.0818 µM), respectively.
As to `NC[C@H]1O[C@H](O[C@H]2[C@H](O)[C@@H](O[C@H]3O[C@H](CO)[C@@H](O)[C@H](N)[C@H]3O)[C@H](N)C[C@@H]2N)[C@H](O)[C@@H](O)[C@@H]1O` [Kanamycin], the MIC in experiment [1] (setting [8]) was found to be 2 µg/mL (≈ 4.13 µM); in experiment [1] (setting [9]) it was 1 µg/mL (≈ 2.06 µM); in experiment [1] (setting [10]) it was 2 µg/mL (≈ 4.13 µM); in experiment [2] (setting [11]), 2 µg/mL (≈ 4.13 µM); in experiment [2] (setting [12]), 1 µg/mL (≈ 2.06 µM); in experiment [2] (setting [13]) it was 2 µg/mL (≈ 4.13 µM). The MIC in experiment [3] (setting [14]) was 2 µg/mL (≈ 4.13 µM); in experiment [3] (setting [15]), 0.5 µg/mL (≈ 1.03 µM); in experiment [3] (setting [16]) it was 0.5 µg/mL (≈ 1.03 µM).
As for `O=C(N[C@H](CO)[C@H](O)c1ccc([N+](=O)[O-])cc1)C(Cl)Cl` [Chloramphenicol], the EFSA breakpoints in experiment [4], in experiment [5] and in experiment [6] was 8 µg/mL throughout. Further, the minimum inhibitory concentration (MIC) came out at 4 µg/mL (≈ 12.4 µM) in experiment [1] (setting [8]); 8 µg/mL (≈ 24.8 µM) in experiment [1] (setting [9]); 4 µg/mL (≈ 12.4 µM) in experiment [1] (setting [10]); 8 µg/mL (≈ 24.8 µM) in experiment [2] (setting [11]); 4 µg/mL (≈ 12.4 µM) in experiment [2] (setting [12]); 8 µg/mL (≈ 24.8 µM) in experiment [2] (setting [13]). Also, the minimum inhibitory concentration (MIC) in experiment [3] (setting [14]), in experiment [3] (setting [15]) and in experiment [3] (setting [16]) was 4 µg/mL (≈ 12.4 µM) throughout.
Take `CN(C)[C@@H]1C(O)=C(C(N)=O)C(=O)[C@@]2(O)C(O)=C3C(=O)c4c(O)cccc4[C@@](C)(O)[C@H]3C[C@@H]12` [Tetracycline]: the MIC in experiment [1] (setting [8]) stood at 0.25 µg/mL (≈ 0.563 µM); in experiment [1] (setting [9]), 0.25 µg/mL (≈ 0.563 µM); in experiment [1] (setting [10]), 0.25 µg/mL (≈ 0.563 µM); in experiment [2] (setting [11]) it was 2 µg/mL (≈ 4.5 µM); in experiment [2] (setting [12]), 4 µg/mL (≈ 9 µM); in experiment [2] (setting [13]), 4 µg/mL (≈ 9 µM). Further, the MIC in experiment [3] (setting [14]) was determined as 16 µg/mL (≈ 36 µM); in experiment [3] (setting [15]) it was 8 µg/mL (≈ 18 µM); in experiment [3] (setting [16]), 8 µg/mL (≈ 18 µM). Also, the “MIC 1” value in experiment [3] (setting [17]) came to 16 µg/mL (≈ 36 µM).
As to Gentamycin, the EFSA breakpoints in experiment [4], in experiment [5] and in experiment [6] was 4 µg/mL in each case. Moreover, the “MIC 1” value in experiment [1] (setting [17]) amounted to 0.25 µg/mL; in experiment [2] (setting [17]) it was 0.25 µg/mL; in experiment [3] (setting [17]), 0.5 µg/mL. For the same compound, the “MIC 2” value in experiment [1] (setting [18]), in experiment [2] (setting [18]) and in experiment [3] (setting [18]) was 0.125 µg/mL in each case. Moreover, the results for the “MIC 3” value in experiment [1] (setting [19]), in experiment [2] (setting [19]) and in experiment [3] (setting [19]) were 0.25 µg/mL, 0.25 µg/mL and 0.06 µg/mL, respectively.
On to `[H]/N=C(/N)N[C@H]1[C@H](O)[C@@H](O)[C@H](O[C@@H]2O[C@@H](C)[C@](O)(C=O)[C@H]2O[C@@H]2O[C@@H](CO)[C@H](O)[C@@H](O)[C@@H]2NC)[C@@H](N/C(N)=N\[H])[C@@H]1O` [Streptomycin], for which the EFSA breakpoints in experiment [4], in experiment [5] and in experiment [6] was 8 µg/mL throughout. Besides, the MIC in experiment [1] (setting [8]) turned out to be 4 µg/mL (≈ 6.88 µM); in experiment [1] (setting [9]) it was 4 µg/mL (≈ 6.88 µM); in experiment [1] (setting [10]), 8 µg/mL (≈ 13.8 µM); in experiment [2] (setting [11]) it was 32 µg/mL (≈ 55 µM); in experiment [2] (setting [12]), 16 µg/mL (≈ 27.5 µM); in experiment [2] (setting [13]) it was 32 µg/mL (≈ 55 µM). In addition, the MIC in experiment [3] (setting [14]) came out at 2 µg/mL (≈ 3.44 µM); in experiment [3] (setting [15]), 4 µg/mL (≈ 6.88 µM); in experiment [3] (setting [16]) it was 4 µg/mL (≈ 6.88 µM).
`CC[C@H](C)[C@H](N)C1=N[C@H](C(=O)N[C@@H](CC(C)C)C(=O)N[C@H](CCC(=O)O)C(=O)N[C@H](C(=O)N[C@H]2CCCCNC(=O)[C@H](CC(N)=O)NC(=O)[C@@H](CC(=O)O)NC(=O)[C@H](Cc3cnc[nH]3)NC(=O)[C@@H](Cc3ccccc3)NC(=O)[C@H]([C@@H](C)CC)NC(=O)[C@@H](CCCN)NC2=O)[C@@H](C)CC)CS1` [bacitracin] ({Ileψ(thiazoline)Cys}-L[dE]IK[dOrn]I[dF]H[dD]N; lactam 4-C): in experiment [7] (setting [20]), the “Lesion score (d 21)” value turned out to be 0.2a, the “BWG (g/bird) (d 1-d 28)” value amounted to 633ab g/bird, the “Dead birds with necrotic enteritis lesions (%) (d 1-d 28)” value (“Dead birds … (%) (d 1-d 28)” below) stood at 1.6b % and the “FCR (d 1-d 28)” value is given as 1.813bc. In experiment [7] (setting [20]), the “Total mortality (%) (d 1-d 28)” value was found to be 5.0b %. Besides, in experiment [7] (setting [21]), the “Lesion score (d 21)” value stood at 0.6b, the “BWG (g/bird) (d 1-d 28)” value is 665ab g/bird, the “Dead birds … (%) (d 1-d 28)” value turned out to be 6.3c % and the “FCR (d 1-d 28)” value is 1.759b. The “Total mortality (%) (d 1-d 28)” value in experiment [7] (setting [21]) was 12.5bc %. For the same compound, in experiment [7] (setting [22]), the “Lesion score (d 21)” value stood at 0.6a, the “BWG (g/bird) (d 1-d 28)” value stood at 645a g/bird, the “Dead birds … (%) (d 1-d 28)” value turned out to be 4.7bc % and the “FCR (d 1-d 28)” value is 1.786bc. For the same compound, the “Total mortality (%) (d 1-d 28)” value in experiment [7] (setting [22]) was found to be 15.0a %.
